Here are results for 12 molecules from US11208386B2, “Inhibitors of protein arginine deiminases (PADs) and methods of preparation and use thereof” (University of Massachusetts, priority 2016, dated 2021).

What all share (format): biochemical
In one test the target is T1, PAD3 (Homo sapiens, UniProt Q9ULW8).
T1 construct: made in house
T1 sequence (Q9ULW8 1-664): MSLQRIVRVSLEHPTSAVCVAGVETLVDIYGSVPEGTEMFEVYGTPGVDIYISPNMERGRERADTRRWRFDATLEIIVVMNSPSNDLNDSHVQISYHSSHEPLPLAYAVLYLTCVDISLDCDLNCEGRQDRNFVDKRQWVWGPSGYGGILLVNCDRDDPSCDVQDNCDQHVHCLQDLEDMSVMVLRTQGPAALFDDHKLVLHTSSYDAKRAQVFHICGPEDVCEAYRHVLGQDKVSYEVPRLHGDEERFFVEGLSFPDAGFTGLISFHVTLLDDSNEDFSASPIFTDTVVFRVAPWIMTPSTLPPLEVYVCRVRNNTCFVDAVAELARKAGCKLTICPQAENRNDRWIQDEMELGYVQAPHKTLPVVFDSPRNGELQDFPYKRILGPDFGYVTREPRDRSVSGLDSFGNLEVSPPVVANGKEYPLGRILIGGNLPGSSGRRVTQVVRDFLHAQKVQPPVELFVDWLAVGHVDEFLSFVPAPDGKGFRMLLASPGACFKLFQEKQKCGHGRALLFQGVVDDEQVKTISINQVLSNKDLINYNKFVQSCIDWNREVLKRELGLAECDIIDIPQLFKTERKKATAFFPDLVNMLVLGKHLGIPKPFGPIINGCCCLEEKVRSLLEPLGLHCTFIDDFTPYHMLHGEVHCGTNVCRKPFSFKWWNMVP
Kind of test: Inactivation kinetics, PAD3. The note with it: for kinact/KI: a: single kobs determined; for Fold PAD3 Selectivity: kinact/KI relative to least inhibited isozyme (1.0). The procedure, abridged: (§1)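 PAD1, 2 or 4 (2.0 μM) or PAD3 (5.0 μM) preincubated at 37 °C with varying inhibitor in 50 mM HEPES, 10 mM CaCl2, 2 mM DTT, pH 7.6. Timed aliquots assayed 15 min with 10 mM BAEE (BAA for PAD3); citrulline quantified by COLDER.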

A further test addresses T2, PAD2 (Homo sapiens, UniProt Q9Y2J8).
T2 construct: made in house
Kind of test: Inactivation kinetics, PAD2. The settings on record: for kinact/KI: a: single kobs determined, b: from a linear fit, other footnotes: from kinact and KI; for Fold PAD2 Selectivity: kinact/KI relative to least inhibited isozyme (1.0). The procedure, abridged: as §1

The target of the next test is T3, PAD4 (Homo sapiens, UniProt Q9UM07).
T3 construct: made in house
T3 sequence (Q9UM07 whole entry): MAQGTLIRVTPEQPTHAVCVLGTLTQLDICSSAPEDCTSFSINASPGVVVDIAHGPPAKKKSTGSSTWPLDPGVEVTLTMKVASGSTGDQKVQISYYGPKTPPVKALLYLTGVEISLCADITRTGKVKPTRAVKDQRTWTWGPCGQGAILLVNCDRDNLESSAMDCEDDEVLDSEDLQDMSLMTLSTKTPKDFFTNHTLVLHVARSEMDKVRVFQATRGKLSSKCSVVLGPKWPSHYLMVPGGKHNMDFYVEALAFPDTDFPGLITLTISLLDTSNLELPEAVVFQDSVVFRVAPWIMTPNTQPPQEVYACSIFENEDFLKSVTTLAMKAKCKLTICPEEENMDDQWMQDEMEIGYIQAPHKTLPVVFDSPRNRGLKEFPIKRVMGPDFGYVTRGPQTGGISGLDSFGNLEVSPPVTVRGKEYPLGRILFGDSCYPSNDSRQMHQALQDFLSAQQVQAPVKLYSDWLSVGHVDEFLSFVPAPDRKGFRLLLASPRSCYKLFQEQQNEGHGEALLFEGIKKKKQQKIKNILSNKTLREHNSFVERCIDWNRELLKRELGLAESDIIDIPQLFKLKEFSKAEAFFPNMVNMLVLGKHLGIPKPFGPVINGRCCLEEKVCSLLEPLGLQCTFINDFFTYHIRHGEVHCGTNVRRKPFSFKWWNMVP
Kind of test: Inactivation kinetics, PAD4. The note with it: for kinact/KI: a: single kobs determined, b: from a linear fit; for Fold PAD4 Selectivity: kinact/KI relative to least inhibited isozyme (1.0). The gist of the method:
as §1

The next test has as its target T4, PAD1 (Homo sapiens, UniProt Q9ULC6).
T4 construct: made in house
T4 sequence (Q9ULC6 1-663): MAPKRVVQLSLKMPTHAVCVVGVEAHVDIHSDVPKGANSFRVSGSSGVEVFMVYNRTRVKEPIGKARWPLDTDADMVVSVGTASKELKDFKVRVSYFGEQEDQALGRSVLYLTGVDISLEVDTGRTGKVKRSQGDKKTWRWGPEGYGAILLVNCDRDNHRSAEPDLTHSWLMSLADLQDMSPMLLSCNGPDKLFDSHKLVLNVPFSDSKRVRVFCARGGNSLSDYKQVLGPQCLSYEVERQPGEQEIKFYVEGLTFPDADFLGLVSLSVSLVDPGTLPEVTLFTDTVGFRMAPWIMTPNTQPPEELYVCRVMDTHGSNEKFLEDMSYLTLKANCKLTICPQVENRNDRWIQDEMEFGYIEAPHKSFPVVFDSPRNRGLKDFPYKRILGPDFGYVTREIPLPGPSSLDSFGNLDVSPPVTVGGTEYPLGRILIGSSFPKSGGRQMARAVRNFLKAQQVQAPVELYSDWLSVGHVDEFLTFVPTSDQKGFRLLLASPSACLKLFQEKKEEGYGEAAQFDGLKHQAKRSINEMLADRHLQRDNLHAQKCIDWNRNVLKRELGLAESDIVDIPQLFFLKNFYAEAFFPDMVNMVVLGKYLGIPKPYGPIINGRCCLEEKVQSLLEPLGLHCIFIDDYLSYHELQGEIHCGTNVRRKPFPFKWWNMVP
Kind of test: Inactivation kinetics, PAD1. The note with it: for kinact/KI: a: single kobs determined, b: from a linear fit; for Fold PAD1 Selectivity: kinact/KI relative to least inhibited isozyme (1.0). The procedure, abridged:
as §1

T2 sequence (Q9Y2J8 whole entry): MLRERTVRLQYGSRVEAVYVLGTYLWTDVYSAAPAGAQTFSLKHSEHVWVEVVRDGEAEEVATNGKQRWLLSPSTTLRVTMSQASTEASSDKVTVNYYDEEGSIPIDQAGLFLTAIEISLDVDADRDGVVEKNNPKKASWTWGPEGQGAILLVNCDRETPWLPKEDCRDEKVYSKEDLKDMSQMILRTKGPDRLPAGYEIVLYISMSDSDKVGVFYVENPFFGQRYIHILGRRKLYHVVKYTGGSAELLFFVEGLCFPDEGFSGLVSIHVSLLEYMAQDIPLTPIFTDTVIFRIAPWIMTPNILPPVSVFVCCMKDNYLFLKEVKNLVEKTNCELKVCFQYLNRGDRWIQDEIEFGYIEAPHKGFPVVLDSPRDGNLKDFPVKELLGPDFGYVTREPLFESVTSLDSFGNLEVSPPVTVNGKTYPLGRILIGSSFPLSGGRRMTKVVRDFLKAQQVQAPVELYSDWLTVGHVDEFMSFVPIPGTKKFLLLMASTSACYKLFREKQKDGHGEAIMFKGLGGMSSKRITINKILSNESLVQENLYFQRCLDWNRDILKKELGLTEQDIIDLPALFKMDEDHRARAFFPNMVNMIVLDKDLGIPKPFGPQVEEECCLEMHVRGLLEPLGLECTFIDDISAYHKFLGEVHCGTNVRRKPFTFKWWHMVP

The kinact/KI is the maximal inactivation rate divided by the concentration that gives half of it. On to `CC(C)n1c([C@H](CCCNC(=N)CF)NC(=O)c2ccc(-c3ccccc3)cc2)nc2ccccc21` [Compound 5k, N1-[1,4′-Phenyl]benzoyl-N5-(2-fluoro-1-iminoethyl)-1-(1-isopropyl-benzo[d]imidazol-2-yl)-L-ornithine], for which, at PAD3, the kinact/KI is 28.3 M⁻¹ s⁻¹ and the “Fold PAD3 Selectivity” value was 85 fold. Also, on PAD2, the kinact/KI is 11.3 M⁻¹ s⁻¹ and the “Fold PAD2 Selectivity” value was 34 fold. At PAD4, the kinact/KI is 0.333 M⁻¹ s⁻¹ and the “Fold PAD4 Selectivity” value stood at 1.0 fold. Further, on PAD1, the kinact/KI was 0.333 M⁻¹ s⁻¹ and the “Fold PAD1 Selectivity” value came to 1.0 fold.
For the molecule `COc1cccc2c1nc([C@H](CCCNC(=N)CF)NC(=O)c1ccccc1C(=O)O)n2C` [Compound 6i, N1-(2-Carboxyl)benzoyl-N5-(2-fluoro-1-iminoethyl)-1-(4-methoxy-1-methyl-benzo[d]imidazol-2-yl)-L-ornithine], at PAD3, the kinact/KI was 113 M⁻¹ s⁻¹ and the “Fold PAD3 Selectivity” value was 1.1 fold. In addition, on PAD2, the kinact/KI is 340 M⁻¹ s⁻¹ and the “Fold PAD2 Selectivity” value stood at 3.4 fold. For the same molecule, at PAD4, the kinact/KI was 101 M⁻¹ s⁻¹ and the “Fold PAD4 Selectivity” value worked out at 1.0 fold. For the same molecule, at PAD1, the second-order inactivation constant (kinact/KI) was 627 M⁻¹ s⁻¹ and the “Fold PAD1 Selectivity” value was 6.2 fold.
As to `CCn1c([C@H](CCCNC(=N)CCl)NC(=O)c2ccccc2C(=O)O)nc2ccccc21` [Compound 6f, N1-(2-Carboxyl)benzoyl-N5-(2-chloro-1-iminoethyl)-1-(1-ethyl-benzo[d]imidazol-2-yl)-L-ornithine], at PAD3, the kinact/KI was 183 M⁻¹ s⁻¹ and the “Fold PAD3 Selectivity” value came to 1.0 fold. At PAD2, the kinact/KI is 290 M⁻¹ s⁻¹ and the “Fold PAD2 Selectivity” value came to 1.6 fold. On PAD4, the kinact/KI was 228 M⁻¹ s⁻¹ and the “Fold PAD4 Selectivity” value is given as 1.2 fold. For the same molecule, at PAD1, the kinact/KI is 785 M⁻¹ s⁻¹ and the “Fold PAD1 Selectivity” value was 4.3 fold.
For `COc1cccc2c1nc([C@H](CCCNC(=N)CCl)NC(=O)c1ccc(-c3ccccc3)cc1)n2C` [Compound 5n, N1-[1,4′-Phenyl]benzoyl-N5-(2-chloro-1-iminoethyl)-1-(4-methoxy-1-methyl-benzo[d]imidazol-2-yl)-L-ornithine], on PAD3, the second-order inactivation constant (kinact/KI) is 91.7 M⁻¹ s⁻¹ and the “Fold PAD3 Selectivity” value worked out at 1.0 fold. Besides, at PAD2, the kinact/KI was 463 M⁻¹ s⁻¹ and the “Fold PAD2 Selectivity” value is listed as 5.1 fold. At PAD4, the kinact/KI is 132 M⁻¹ s⁻¹ and the “Fold PAD4 Selectivity” value amounted to 1.4 fold. At PAD1, the kinact/KI is 580 M⁻¹ s⁻¹ and the “Fold PAD1 Selectivity” value came out at 6.3 fold.
In the case of `COc1cccc2[nH]c([C@H](CCCNC(=N)CCl)NC(=O)c3cccc4c3C(=O)NC4)nc12` [Compound 7j, N1-(3-oxoisoindoline)benzoyl-N5-(2-chloro-1-iminoethyl)-1-(4-methoxy-1H-benzo[d]imidazol-2-yl)-L-ornithine], on PAD3, the kinact/KI is 502 M⁻¹ s⁻¹ and the “Fold PAD3 Selectivity” value was 6.9 fold. In addition, on PAD2, the kinact/KI is 802 M⁻¹ s⁻¹ and the “Fold PAD2 Selectivity” value stood at 11 fold. At PAD4, the kinact/KI was 72.3 M⁻¹ s⁻¹ and the “Fold PAD4 Selectivity” value was found to be 1.0 fold. On PAD1, the kinact/KI is 2180 M⁻¹ s⁻¹ and the “Fold PAD1 Selectivity” value is given as 30 fold.
For `N=C(CCl)NCCC[C@H](NC(=O)c1ccc2ccccc2c1)c1nc2ccccc2[nH]1` [Compound 5d], on PAD3, the kinact/KI is 165 M⁻¹ s⁻¹ and the “Fold PAD3 Selectivity” value stood at 3.5 fold. On PAD2, the kinact/KI was 71.2 M⁻¹ s⁻¹ and the “Fold PAD2 Selectivity” value is on record as 1.5 fold. Besides, on PAD4, the kinact/KI is 167 M⁻¹ s⁻¹ and the “Fold PAD4 Selectivity” value is on record as 3.6 fold. In addition, on PAD1, the kinact/KI was 46.7 M⁻¹ s⁻¹ and the “Fold PAD1 Selectivity” value came out at 1.0 fold.
With `CCn1c([C@H](CCCNC(=N)CCl)NC(=O)c2ccc(-c3ccccc3)cc2)nc2ccccc21` [Compound 5j, N1-[1,4′-Phenyl]benzoyl-N5-(2-chloro-1-iminoethyl)-1-(1-ethyl-benzo[d]imidazol-2-yl)-L-ornithine], on PAD3, the inactivation efficiency (kinact/KI) is 284 M⁻¹ s⁻¹ and the “Fold PAD3 Selectivity” value was 4.1 fold. In addition, on PAD2, the second-order inactivation constant (kinact/KI) was 80.8 M⁻¹ s⁻¹ and the “Fold PAD2 Selectivity” value is given as 1.2 fold. At PAD4, the kinact/KI is 69.2 M⁻¹ s⁻¹ and the “Fold PAD4 Selectivity” value was found to be 1.0 fold. Also, at PAD1, the kinact/KI is 84.3 M⁻¹ s⁻¹ and the “Fold PAD1 Selectivity” value is given as 1.2 fold.
Regarding `COc1ccc2[nH]c([C@H](CCCNC(=N)CF)NC(=O)c3cccc4c3C(=O)NC4)nc2c1` [Compound 7s, N1-(3-oxoisoindoline)benzoyl-N5-(2-fluoro-1-iminoethyl)-1-(5-methoxy-1H-benzo[d]imidazol-2-yl)-L-ornithine], at PAD3, the kinact/KI was 76.2 M⁻¹ s⁻¹ and the “Fold PAD3 Selectivity” value is 1.0 fold. At PAD2, the kinact/KI was 415 M⁻¹ s⁻¹ and the “Fold PAD2 Selectivity” value is recorded as 5.4 fold. Besides, at PAD4, the kinact/KI is 264 M⁻¹ s⁻¹ and the “Fold PAD4 Selectivity” value was 3.5 fold. Besides, at PAD1, the kinact/KI was 974 M⁻¹ s⁻¹ and the “Fold PAD1 Selectivity” value worked out at 13 fold.
Turning to `N=C(CF)NCCC[C@H](NC(=O)c1ccc(-c2ccccc2)cc1)c1nc2ccccc2[nH]1` [Compound 5e, N1-[1,4′-Phenyl]benzol-N5-(2-fluoro-1-iminoethyl)-1-(1H-benzo[d]imidazol-2-yl)-L-ornithine], at PAD3, the kinact/KI is 56.7 M⁻¹ s⁻¹ and the “Fold PAD3 Selectivity” value was 3.8 fold. Further, on PAD2, the kinact/KI is 20 M⁻¹ s⁻¹ and the “Fold PAD2 Selectivity” value was 1.3 fold. For the same molecule, at PAD4, the kinact/KI is 62.5 M⁻¹ s⁻¹ and the “Fold PAD4 Selectivity” value is listed as 4.2 fold. For the same molecule, at PAD1, the kinact/KI was 15 M⁻¹ s⁻¹ and the “Fold PAD1 Selectivity” value is reported as 1.0 fold.
Consider `CCN1Cc2cccc(C(=O)N[C@@H](CCCNC(=N)CF)c3nc4ccccc4n3C(C)C)c2C1=O` [Compound 8g, N1-(2-ethyl-3-oxoisoindoline)benzol-N5-(2-fluoro-1-iminoethyl)-1-(1-isopropyl-benzo[d]imidazol-2-yl)-L-ornithine], for which, on PAD3, the kinact/KI is 26.7 M⁻¹ s⁻¹ and the “Fold PAD3 Selectivity” value is 3.4 fold. Moreover, at PAD2, the second-order inactivation constant (kinact/KI) is 173 M⁻¹ s⁻¹ and the “Fold PAD2 Selectivity” value is recorded as 22 fold. Besides, at PAD4, the kinact/KI is 7.83 M⁻¹ s⁻¹ and the “Fold PAD4 Selectivity” value was 1.0 fold. For the same molecule, at PAD1, the kinact/KI is 78.3 M⁻¹ s⁻¹ and the “Fold PAD1 Selectivity” value was 10 fold.
On to `COc1cccc2c1nc([C@H](CCCNC(=N)CCl)NC(=O)c1cccc3c1C(=O)NC3)n2C` [Compound 7l, N1-(3-oxoisoindoline)benzoyl-N5-(2-chloro-1-iminoethyl)-1-(4-methoxy-1-methyl-benzo[d]imidazol-2-yl)-L-ornithine], for which, at PAD3, the kinact/KI was 332 M⁻¹ s⁻¹ and the “Fold PAD3 Selectivity” value was found to be 1.0 fold. Further, at PAD2, the kinact/KI is 1300 M⁻¹ s⁻¹ and the “Fold PAD2 Selectivity” value turned out to be 3.9 fold. Besides, at PAD4, the kinact/KI was 422 M⁻¹ s⁻¹ and the “Fold PAD4 Selectivity” value came out at 1.3 fold. Also, at PAD1, the kinact/KI was 1300 M⁻¹ s⁻¹ and the “Fold PAD1 Selectivity” value was 3.9 fold.
`N=C(CF)NCCC[C@H](NC(=O)c1ccc(-c2ccc(F)cc2)cc1)c1nc2ccccc2[nH]1` [Compound 5o]: at PAD3, the kinact/KI is 27 M⁻¹ s⁻¹ and the “Fold PAD3 Selectivity” value came out at 1.2 fold. For the same molecule, on PAD2, the kinact/KI was 28.3 M⁻¹ s⁻¹ and the “Fold PAD2 Selectivity” value is recorded as 1.2 fold. Also, on PAD4, the kinact/KI is 53.3 M⁻¹ s⁻¹ and the “Fold PAD4 Selectivity” value is reported as 2.3 fold. Moreover, at PAD1, the kinact/KI is 23.3 M⁻¹ s⁻¹ and the “Fold PAD1 Selectivity” value is on record as 1.0 fold.
